Assay [1] relates to Staphylococcus aureus - MRSA. Description: Antimicrobial assay, MIC (NCCLS M7-A5). In kind it is cell-based, Staphylococcus aureus (methicillin resistant). As to the method: (§1) Minimum inhibitory concentrations (MICs) were determined according to the National Committee for Clinical Laboratory Standards (NCCLS) susceptibility test guideline M7-A5 (Ferraro, M. 2001 Methods for Dilution Antimicrobial Susceptibility Tests for Bacteria that Grow Aerobically; Approved Standard (NCCLS). National Committee for Clinical Laboratory Standards (NCCLS), Villanova, which is incorporated herein by reference in its entirety). The compound of formula VI was tested in DMSO while the compound of formula VII was tested in aqueous MeOH. The compound of formulae VIII and IX were tested in DMSO.

The subject of assay [2] is PSSP. Description: Antimicrobial assay, MIC (NCCLS M7-A5). The settings on record: Streptococcus pneumoniae. It is filed as cell-based, Streptococcus pneumonia (penicillin sensitive). As to the method:
as §1

For assay [3], the system named is H. inf. 49247. The assay is described as follows: Antimicrobial assay, MIC (NCCLS M7-A5). In kind it is cell-based. The settings on record: Haemophilus influenzae. Here is the method:
as §1

Assay [4] relates to H. inf. 49766. Description: Antimicrobial assay, MIC (NCCLS M7-A5). In kind it is cell-based. The settings on record: Haemophilus influenzae. Here is the method:
as §1

The test system of assay [5] is Staphylococcus aureus - MSSA. Description: Antimicrobial assay, MIC (NCCLS M7-A5). It is filed as cell-based, Staphylococcus aureus (methicillin sensitive). Here is the method: as §1
The subject of assay [6] is Gram-positive microorganisms tested. Description: Antimicrobial assays, summary for Gram-positive microorganisms. In kind it is cell-based. As to the method: as §1
Assay [7] deals with Gram-negative microorganism Haemophilus influenzae. The assay is described as follows: Antimicrobial assays, summary for Haemophilus influenzae. It is filed as cell-based. Here is the method: as §1
Assay [8] relates to VSE. The assay is described as follows: Antimicrobial assay, MIC (NCCLS M7-A5). It is filed as cell-based, Enterococcus faecalis (vancomycin sensitive). As to conditions: Enterococcus faecalis. Here is the method:
as §1

Assay [9] has as its system PRSP. Description: Antimicrobial assay, MIC (NCCLS M7-A5). The settings on record: Streptococcus pneumoniae. In kind it is cell-based, Streptococcus pneumonia (penicillin resistant). As to the method: as §1
In assay [10] the test system is VRE. Description: Antimicrobial assay, MIC (NCCLS M7-A5). In kind it is cell-based, Enterococcus faecium (vancomycin resistant). The settings on record: Enterococcus. Here is the method: as §1
In assay [11] the test system is Candida albicans. Description: Antimicrobial assay, MIC (NCCLS M7-A5). It is filed as cell-based. Here is the method:
as §1

For assay [12], the system named is E. c. MCR106. Description: Antimicrobial assay, MIC (NCCLS M7-A5). It is filed as cell-based. Here is the method:
as §1

Assay [13] relates to E. c. imp. The assay is described as follows: Antimicrobial assay, MIC (NCCLS M7-A5). In kind it is cell-based. As to the method: as §1
Assay [14] relates to E. c. 25922. The assay is described as follows: Antimicrobial assay, MIC (NCCLS M7-A5). It is filed as cell-based. As to the method:
as §1

Assay [15] has as its system S. epi. 700578. Description: Antimicrobial assay, MIC (NCCLS M7-A5). In kind it is cell-based, Staphylococcus epidermis (multiple drug resistant). The settings on record: Staphylococcus. As to the method: as §1
Assay [16] concerns S. epi. 700582. Description: Antimicrobial assay, MIC (NCCLS M7-A5). It is filed as cell-based, Staphylococcus epidermis (multiple drug resistant). As to conditions: Staphylococcus. Here is the method: as §1
In assay [17] the test system is B16-F10 cells. The assay is described as follows: Growth inhibition of murine melanoma B16-F10 cells (resazurin fluorescence). In kind it is cell-based. Here is the method: B16-F10 (ATCC; CRL-6475) a murine melanoma cell line was maintained in complete Dulbecco's Modification of Eagle's Medium (DMEM) (DMEM supplemented with 10% (v/v) Fetal bovine serum, 2 mM glutamine, 10 mM HEPES and Penicillin/Streptomycin at 100 IU/ml and 100 μg/ml respectively). The cells were cultured in an incubator at 37° C. in 5% CO2 and 95% humidified air. […] 20 mM stock solutions of formula VI were prepared in 100% DMSO. 10× concentrated serial dilutions of formula VI were prepared in complete media. Ten μl volumes of the serial dilutions were added to the test wells in triplicate resulting in final concentrations ranging from 20 μM to 6.32 nM. The plates were returned to the incubator for 48 hours. The final concentration of DMSO was 0.25% in all samples. Following 48 hours of drug exposure, 10 μl of 0.2 mg/ml resazurin (obtained from Sigma-Aldrich Chemical Co.) in Mg^2+, Ca^2+ free phosphate buffered saline was added to each well and the plates were returned to the incubator for 3-6 hours. Since living cells metabolize Resazurin, the fluorescence of the reduction product of Resazurin was measured using a Fusion microplate fluorometer (Packard Bioscience) with λex=535 nm and λem=590 nm filters. Resazurin dye in medium without cells was used to determine the background, which was subtracted from the data for all experimental wells. […]
On the technique in general: The colour change of resazurin is a common sign of viable cells or microbes.

Each structure is given as a SMILES string.

`CCCCCCC/C(C)=C/C(=O)CC(=N)OC(CCCC)C(=O)O` (stereo not shown) [Formula IX]: the MIC in assay [1] (tested in DMSO) was more than 32 µg/mL; in assay [2] (tested in DMSO), more than 32 µg/mL; in [3] (tested in DMSO), more than 32 µg/mL; in [4] (tested in DMSO), more than 32 µg/mL; in [5] (tested in DMSO), 24 µg/mL.

For `CCCCCC/C(C)=C/C(=O)C=C1NC(=O)C(CCCC)O1` (stereo not shown) [Formula VIII], in [6], the “anti-bacterial activity versus the Gram-positive microorganisms tested (statement in words)” value is “possess anti-bacterial activity”. The “activity against the Gram-negative microorganism Haemophilus influenzae (statement in words)” value in [7] was “weakly active”. The MIC worked out at 3 µg/mL in [1] (tested in DMSO); 10 µg/mL in assay [2] (tested in DMSO); 16 µg/mL in assay [3] (tested in DMSO); 5 µg/mL in assay [4] (tested in DMSO); 4 µg/mL in assay [5] (tested in DMSO).

For the compound `CCCCCCC/C(C)=C/C(=O)C=C1NC(=O)C(CCCCC)O1` (stereo not shown) [Formula VII], the “anti-bacterial activity versus the Gram-positive microorganisms tested (statement in words)” value in [6] is reported as “possess anti-bacterial activity”. The MIC in assay [8] (tested in aqueous MeOH) came out at 3 µg/mL; in [1] (tested in aqueous MeOH), 1.5 µg/mL; in assay [9] (tested in aqueous MeOH) it was 6 µg/mL; in assay [2] (tested in aqueous MeOH) it was 8 µg/mL; in assay [10] (tested in aqueous MeOH), 1.5 µg/mL; in assay [3] (tested in aqueous MeOH), 12 µg/mL. Also, the MIC was more than 32 µg/mL in assay [11] (tested in aqueous MeOH); more than 32 µg/mL in [12] (tested in aqueous MeOH); more than 32 µg/mL in [13] (tested in aqueous MeOH); more than 32 µg/mL in assay [14] (tested in aqueous MeOH); 16 µg/mL in [4] (tested in aqueous MeOH); 1.25 µg/mL in assay [15] (tested in aqueous MeOH). The MIC in assay [16] (tested in aqueous MeOH) turned out to be 0.75 µg/mL; in assay [5] (tested in aqueous MeOH), 6 µg/mL. The “activity against the Gram-negative microorganism Haemophilus influenzae (statement in words)” value in assay [7] was “weakly active”.

A word on the EC50: it is the midpoint of the concentration-response curve. As to `CCCCCCC/C(C)=C/C(=O)C=C1NC(=O)C(CCCC)O1` (stereo not shown) [Formula VI], the “anti-bacterial activity versus the Gram-positive microorganisms tested (statement in words)” value in assay [6] was “possess anti-bacterial activity”. Also, the MIC in assay [8] (tested in DMSO) amounted to 3.67 µg/mL; in assay [1] (tested in DMSO), 1.04 µg/mL; in assay [9] (tested in DMSO), 4.67 µg/mL; in assay [2] (tested in DMSO), 2.58 µg/mL; in [10] (tested in DMSO), 1.83 µg/mL; in assay [3] (tested in DMSO), 12 µg/mL. The MIC in assay [11] (tested in DMSO) was more than 32 µg/mL; in assay [12] (tested in DMSO), more than 32 µg/mL; in assay [13] (tested in DMSO) it was more than 32 µg/mL; in assay [14] (tested in DMSO), more than 32 µg/mL; in [4] (tested in DMSO), 12 µg/mL; in assay [15] (tested in DMSO) it was 0.54 µg/mL. Further, the MIC in [16] (tested in DMSO) stood at 0.54 µg/mL; in [5] (tested in DMSO) it was 0.88 µg/mL. The “activity against the Gram-negative microorganism Haemophilus influenzae (statement in words)” value in assay [7] is listed as “weakly active”. The “growth of B16-F10 tumor cells (statement in words)” value in [17] was “inhibits the growth”. In [17] (Mus musculus, B16-F10, 48 hours drug exposure, mean ± standard deviation of three independent experiments, read-out: EC50 against B16-F10 cells), the EC50 stood at 6 ± 2.6 µM.

(Values after patent US7378530B2, “Anti-cancer and anti-microbial 5-membered heterocyclic compounds” (Nereus Pharmaceuticals, Inc., priority 2005, dated 2008).)
